Measured values published in ChEMBL document CHEMBL1201862, “PubChem BioAssay data set” (2004).
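1) Cells in 96-well plates. 2) Compound, 48 h, 5 concentrations. 3) Linear interpolation between surrounding doses. 4) Unreached endpoint = highest concentration. GI50: concentration for 50% inhibition of growth.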 Calls of active or inactive are those of the source. Rule as the data show it: active = GI50 up to about 1.1 µM and inactive = higher.

Experiments:
Assay in all cases: DTP human tumour cell line panel, 48 h
[1] = system: SR
[2] = system: SK-MEL-28
[3] = system: M14
[4] = system: A549
[5] = system: T47D
[6] = system: UACC-62
[7] = system: MDA-MB-435
[8] = system: MOLT-4
[9] = system: SK-MEL-2
[10] = system: UO-31
[11] = system: NCI-H522
[12] = system: 786-0
[13] = system: OVCAR-5
[14] = system: EKVX
[15] = system: MCF7
[16] = system: COLO 205
[17] = system: HOP-62
[18] = system: SF-539
[19] = system: CCRF-CEM
[20] = system: LOX IMVI

Measured: GI50

O=[N+]([O-])c1ccc2nc(-c3ccccn3)c(-c3ccccn3)nc2c1
inactive: [1] 33.1 µM | [2] > 100 µM | [3] 66.7 µM | [4] 57.4 µM | [5] > 100 µM | [6] 44.5 µM | [7] > 100 µM | [8] > 100 µM | [9] > 100 µM | [10] > 100 µM | [11] 44.9 µM | [12] > 100 µM | [13] > 100 µM | [14] 71 µM | [15] 57.7 µM | [16] 30.5 µM | [17] 35.1 µM | [18] 45.9 µM | [19] 69.8 µM

CCCCc1ccc(-n2sc3ncc(-c4ccccc4)cc3c2=O)cc1
inactive: [1] > 100 µM | [2] > 100 µM | [3] > 100 µM | [4] > 100 µM | [5] 22.6 µM | [6] > 100 µM | [7] > 100 µM | [8] > 100 µM | [9] > 100 µM | [10] > 100 µM | [12] > 100 µM | [13] > 100 µM | [14] > 100 µM | [20] > 100 µM | [15] > 100 µM | [16] > 100 µM | [17] > 100 µM | [19] > 100 µM

Cc1cc(-c2cccc3ccccc23)c(C#N)c(=S)n1C1OC(CO)C(O)C(O)C1O (stereo not drawn)
inactive: [1] 98.4 µM | [3] > 100 µM | [4] > 100 µM | [5] 52.7 µM | [6] > 100 µM | [7] > 100 µM | [8] > 100 µM | [9] > 100 µM | [12] > 100 µM | [13] > 100 µM | [14] > 100 µM | [20] > 100 µM | [15] > 100 µM | [16] > 100 µM | [17] > 100 µM | [18] > 100 µM | [19] 71.1 µM

C[n+]1ccc(/C2=C3\C=CC(=N3)/C(c3cc[n+](C)cc3)=c3/cc/c([nH]3)=C(\c3cc[n+](C)cc3)C3=N/C(=C(/c4cc[n+](C)cc4)C4C=CC2N4)C=C3)cc1
inactive: [1] 7.73 µM | [2] > 100 µM | [3] > 100 µM | [4] 80.2 µM | [5] > 100 µM | [6] > 100 µM | [7] > 61.7 µM | [8] 95.3 µM | [10] > 100 µM | [11] > 100 µM | [12] > 100 µM | [13] > 100 µM | [14] > 100 µM | [20] > 100 µM | [15] > 100 µM | [16] > 100 µM | [17] > 100 µM | [18] > 93.5 µM | [19] > 75.7 µM
